Experimental data taken from PMC11965169, “Flavin-containing siderophore-interacting protein of Shewanella putrefaciens DSM 9451 reveals common structural and functional aspects of ferric–siderophore reduction” (Journal of Biological Inorganic Chemistry, 2025).

Experiments:
[1] = molecular target: T1, SbSIP (siderophore-interacting protein, flavin-containing siderophore reductase) (Shewanella bicestrii, UniProt A0A220UGT4); test: X-ray crystal structure, […] Å; assay type: binding
T1 construct: gene CF168_00510; Trx-His10 tag-free SbSIP; chains A and B, residues 1-3/247-251 and 1-5/249-251 not modelled
T1 sequence (A0A220UGT4 1-250): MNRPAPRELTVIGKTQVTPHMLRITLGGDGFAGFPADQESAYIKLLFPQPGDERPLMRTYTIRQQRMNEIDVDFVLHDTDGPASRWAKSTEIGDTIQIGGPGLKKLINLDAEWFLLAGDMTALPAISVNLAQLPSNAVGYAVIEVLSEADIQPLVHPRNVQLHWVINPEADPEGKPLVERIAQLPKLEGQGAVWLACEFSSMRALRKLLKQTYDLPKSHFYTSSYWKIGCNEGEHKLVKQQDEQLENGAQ

[2] = molecular target: T2, SbSIP (siderophore-interacting protein, flavin-containing siderophore reductase) (Shewanella bicestrii, UniProt A0A220UGT4); test: […] NMR titration (slow exchange); assay type: binding
T2 construct: gene CF168_00510

[3] = molecular target: T2, SbSIP (siderophore-interacting protein, flavin-containing siderophore reductase); test: […] NMR titration (fast exchange, chemical shift perturbation); assay type: binding
[4] = molecular target: T2, SbSIP (siderophore-interacting protein, flavin-containing siderophore reductase); test: stopped-flow reduction of ferric siderophore by purified SbSIPsemi, […] nm; assay type: biochemical

In the case of `Cc1cc2nc3c(=O)[nH]c(=O)nc-3n(C[C@H](O)[C@H](O)[C@H](O)COP(=O)(O)OP(=O)(O)OC[C@H]3O[C@@H](n4cnc5c(N)ncnc54)[C@H](O)[C@@H]3O)c2cc1C` [FAD], the “X-ray crystal structure, 1.86 Å” value [1] is reported as “contained two SbSIP protein chains (A and B), each one bound to an FAD moiety”.
Compound `NC(=O)C1=CN([C@@H]2O[C@H](COP(=O)(O)OP(=O)(O)OC[C@H]3O[C@@H](n4cnc5c(N)ncnc54)[C@H](O)[C@@H]3O)[C@@H](O)[C@H]2O)C=CC1` [NADH] has a Kd [2] of 17 ± 5 µM.
Compound `NC(=O)C1=CN([C@@H]2O[C@H](COP(=O)(O)OP(=O)(O)OC[C@H]3O[C@@H](n4cnc5c(N)ncnc54)[C@H](OP(=O)(O)O)[C@@H]3O)[C@@H](O)[C@H]2O)C=CC1` [NADPH] has a Kd [3] of 107 ± 2 µM.
Fe(III)–bisucaberin was tested, and the “stopped-flow reduction of ferric siderophore by purified SbSIPsemi, 600 nm” value [4] was 0.0014 ± 2 × 10^–4.
In the case of Fe(III)–putrebactin, the “stopped-flow reduction of ferric siderophore by purified SbSIPsemi, 600 nm” value [4] is reported as 0.0031 ± 5 × 10^–5.
